IC50 data for nine compounds are collected here from patent publication US9963456B2, “Pyrrolopyrimidine compound or salt thereof and compositions containing the pyrrolopyrimidine compound or salt thereof” (TAIHO PHARMACEUTICAL CO., LTD., priority 2014, dated 2018).

The experiment deals with NAE (heterodimer of APPBP1 and UBA3) (Homo sapiens (Human), UniProt Q8TBC4). Description: Nedd8 conjugation inhibitory activity (AlphaScreen assay). The note with it: purified NAE, GST-UBC12, Biotin-Nedd8, ATP. The format is biochemical.
Chain of NAE (heterodimer of APPBP1 and UBA3) (Q8TBC4 whole entry): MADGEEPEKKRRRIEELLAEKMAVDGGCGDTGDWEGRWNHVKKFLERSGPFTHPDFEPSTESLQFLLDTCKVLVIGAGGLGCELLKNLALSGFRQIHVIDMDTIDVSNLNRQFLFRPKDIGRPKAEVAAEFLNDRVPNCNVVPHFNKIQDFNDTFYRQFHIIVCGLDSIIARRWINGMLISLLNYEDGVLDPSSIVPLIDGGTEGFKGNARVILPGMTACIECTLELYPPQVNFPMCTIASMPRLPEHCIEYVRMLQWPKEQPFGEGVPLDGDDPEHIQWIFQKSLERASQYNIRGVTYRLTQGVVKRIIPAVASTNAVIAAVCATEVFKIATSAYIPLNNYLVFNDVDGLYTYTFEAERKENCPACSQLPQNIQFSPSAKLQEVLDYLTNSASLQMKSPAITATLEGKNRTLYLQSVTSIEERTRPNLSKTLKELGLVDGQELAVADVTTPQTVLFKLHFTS
Chain of NAE (heterodimer of APPBP1 and UBA3) (Q13564 whole entry partner): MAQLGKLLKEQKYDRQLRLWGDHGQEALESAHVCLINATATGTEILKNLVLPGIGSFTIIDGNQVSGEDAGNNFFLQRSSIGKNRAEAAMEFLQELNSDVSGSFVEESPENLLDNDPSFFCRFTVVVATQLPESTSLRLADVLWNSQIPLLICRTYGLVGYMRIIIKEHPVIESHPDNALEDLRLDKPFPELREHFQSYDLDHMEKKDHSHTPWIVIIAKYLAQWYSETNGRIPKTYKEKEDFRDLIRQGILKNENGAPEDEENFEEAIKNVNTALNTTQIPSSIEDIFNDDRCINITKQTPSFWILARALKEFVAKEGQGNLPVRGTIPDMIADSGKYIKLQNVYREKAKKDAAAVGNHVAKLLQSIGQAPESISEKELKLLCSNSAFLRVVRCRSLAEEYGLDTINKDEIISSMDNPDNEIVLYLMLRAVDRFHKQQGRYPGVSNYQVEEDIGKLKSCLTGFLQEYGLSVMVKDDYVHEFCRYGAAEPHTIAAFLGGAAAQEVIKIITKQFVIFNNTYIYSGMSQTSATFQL

The term IC50 denotes the concentration needed to halve the response being measured. A higher IC50 goes with weaker potency in that assay. The compound `CN1CCN(c2cc(F)c(C#Cc3cn([C@@H]4C[C@H](CNS(N)(=O)=O)[C@@H](O)[C@H]4O)c4ncnc(N)c34)c(F)c2)CC1` [Example 103, 4-Amino-5-[2-[2,6-difluoro-4-(4-methylpiperazin-1-yl)phenyl]ethynyl]-7-[(1R,2S,3R,4R)-2,3-dihydroxy-4-[(sulfamoylamino)methyl]cyclopentyl]pyrrolo[2,3-d]pyrimidine] displayed a half-inhibitory concentration (IC50) of 0.013 µM.

`Nc1ncnc2c1c(C#Cc1c(F)cc(OCn3cccn3)cc1F)cn2[C@@H]1C[C@H](CNS(N)(=O)=O)[C@@H](O)[C@H]1O` [Example 104, 4-Amino-5-[2-[2,6-difluoro-4-(pyrazol-1-ylmethoxy)phenyl]ethynyl]-7-[(1R,2S,3R,4R)-2,3-dihydroxy-4-[(sulfamoylamino)methyl]cyclopentyl]pyrrolo[2,3-d]pyrimidine] had an IC50 of 0.0089 µM.

In turn, `CCOc1cc(N2CCCCC2)cc(F)c1C#Cc1cn([C@@H]2C[C@H](CNS(N)(=O)=O)[C@@H](O)[C@H]2O)c2ncnc(N)c12` [Example 106, 4-Amino-7-[(1R,2S,3R,4R)-2,3-dihydroxy-4-[(sulfamoylamino)methyl]cyclopentyl]-5-[2-[2-ethoxy-6-fluoro-4-(1-piperidyl)phenyl]ethynyl]pyrrolo[2,3-d]pyrimidine] displayed an IC50 of 0.028 µM.

Regarding `CCOc1cc(N2C3CCC2COC3)cc(F)c1C#Cc1cn([C@@H]2C[C@H](CNS(N)(=O)=O)[C@@H](O)[C@H]2O)c2ncnc(N)c12` [Example 110, 8-[4-[2-[4-Amino-7-[(1R,2S,3R,4R)-2,3-dihydroxy-4-[(sulfamoylamino)methyl]cyclopentyl]pyrrolo[2,3-d]pyrimidin-5-yl]ethynyl]-3-ethoxy-5-fluoro-phenyl]-3-oxa-8-azabicyclo[3,2,1]octane], inhibition was half-maximal at 0.013 µM (IC50).

Compound `CCOc1cc(N2CCOCC2)cc(F)c1C#Cc1cn([C@@H]2C[C@H](CNS(N)(=O)=O)[C@@H](O)[C@H]2O)c2ncnc(N)c12` [Example 112, 4-[4-[2-[4-Amino-7-[(1R,2S,3R,4R)-2,3-dihydroxy-4-[(sulfamoylamino)methyl]cyclopentyl]pyrrolo[2,3-d]pyrimidin-5-yl]ethynyl]-3-ethoxy-5-fluoro-phenyl]morpholine] had an IC50 of 0.015 µM.

`Nc1ncnc2c1c(C#Cc1c(F)cc(N3CC[C@@H](F)C3)cc1F)cn2[C@@H]1C[C@H](CNS(N)(=O)=O)[C@@H](O)[C@H]1O` [Example 115, 4-Amino-5-[2-[2,6-difluoro-4-[(3R)-3-fluoropyrrolidin-1-yl]phenyl]ethynyl]-7-[(1R,2S,3R,4R)-2,3-dihydroxy-4-[(sulfamoylamino)methyl]cyclopentyl]pyrrolo[2,3-d]pyrimidine]: the IC50 was determined as 0.004 µM.

For the compound `Nc1ncnc2c1c(C#Cc1cccc3c1S(=O)(=O)CC3)cn2[C@@H]1C[C@H](CNS(N)(=O)=O)[C@@H](O)[C@H]1O` [Example 117, 4-Amino-7-[(1R,2S,3R,4R)-2,3-dihydroxy-4-[(sulfamoylamino)methyl]cyclopentyl]-5-[2-(1,1-dioxo-2,3-dihydrobenzothiophen-7-yl)ethynyl]pyrrolo[2,3-d]pyrimidine], inhibition was half-maximal at 0.0043 µM (IC50).

In turn, `Nc1ncnc2c1c(C#Cc1c(F)cc(N3CCC3)cc1F)cn2[C@@H]1C[C@H](CNS(N)(=O)=O)[C@@H](O)[C@H]1O` [Example 118, 4-Amino-5-[2-[4-(azetidin-1-yl)-2,6-difluoro-phenyl]ethynyl]-7-[(1R,2S,3R,4R)-2,3-dihydroxy-4-[(sulfamoylamino)methyl]cyclopentyl]pyrrolo[2,3-d]pyrimidine] showed an IC50 of 0.0068 µM.

Take `Nc1ncnc2c1c(C#Cc1c(F)cc(N3CCC(O)CC3)cc1F)cn2[C@@H]1C[C@H](CNS(N)(=O)=O)[C@@H](O)[C@H]1O` [Example 119, 4-Amino-5-[2-[2,6-difluoro-4-(4-hydroxy-1-piperidyl)phenyl]ethynyl]-7-[(1R,2S,3R,4R)-2,3-dihydroxy-4-[(sulfamoylamino)methyl]cyclopentyl]pyrrolo[2,3-d]pyrimidine]: inhibition was half-maximal at 0.0042 µM (IC50).
